Test results as given in US9975897B2, “Pyrazolopyrimidine derivatives useful as inhibitors of Bruton's tyrosine kinase” (Loxo Oncology, Inc., priority 2014, dated 2018).

Tests used:
[1] = rat; cited from earlier work
TMD8 human DLBCL cells = test: TMD8 growth assay; type: cell-based; settings: 72 hours, Resazurin, Table 3 categories
Method: Compounds were assayed for effects on the growth of TMD8 human DLBCL cells that are dependent on NFκB signalling. TMD8 cells were grown in suspension in T225 flasks, centrifuged and re-suspended in 2.5% FBS containing media. Cells were then plated at 1.0×10^4 cells per well in 96-well plates in varying concentrations of compound and incubated for 72 hours at 37° C. An additional plate of cells to be used as the Day 0 read was seeded without compound addition, Resazurin was added to each well, incubated for 5 h and the fluorescence measured at 590 nm. After 72 h of compound treatment, Resazurin was added to each well of the compound treated plates, incubated for 5 hours and the fluorescence measured at 590 nm. The IC50 was then calculated but subtracting the average Day 0 value from each well value from the treated plates, each treatment was then calculated as a percentage of the DMSO control and the percentages plotted against the inhibitor concentration to estimate the IC50 from log [Inhibitor] vs response using the Variable Slope model in Graphpad prism from Graphpad software (San Diego, Calif.).

Recombinant BTK kinase = molecular target: T1, Recombinant BTK kinase (Homo sapiens, UniProt Q06187); test: BTK binding affinity (TR-FRET)
T1 construct: purchased Invitrogen
T1 sequence (Q06187 whole entry): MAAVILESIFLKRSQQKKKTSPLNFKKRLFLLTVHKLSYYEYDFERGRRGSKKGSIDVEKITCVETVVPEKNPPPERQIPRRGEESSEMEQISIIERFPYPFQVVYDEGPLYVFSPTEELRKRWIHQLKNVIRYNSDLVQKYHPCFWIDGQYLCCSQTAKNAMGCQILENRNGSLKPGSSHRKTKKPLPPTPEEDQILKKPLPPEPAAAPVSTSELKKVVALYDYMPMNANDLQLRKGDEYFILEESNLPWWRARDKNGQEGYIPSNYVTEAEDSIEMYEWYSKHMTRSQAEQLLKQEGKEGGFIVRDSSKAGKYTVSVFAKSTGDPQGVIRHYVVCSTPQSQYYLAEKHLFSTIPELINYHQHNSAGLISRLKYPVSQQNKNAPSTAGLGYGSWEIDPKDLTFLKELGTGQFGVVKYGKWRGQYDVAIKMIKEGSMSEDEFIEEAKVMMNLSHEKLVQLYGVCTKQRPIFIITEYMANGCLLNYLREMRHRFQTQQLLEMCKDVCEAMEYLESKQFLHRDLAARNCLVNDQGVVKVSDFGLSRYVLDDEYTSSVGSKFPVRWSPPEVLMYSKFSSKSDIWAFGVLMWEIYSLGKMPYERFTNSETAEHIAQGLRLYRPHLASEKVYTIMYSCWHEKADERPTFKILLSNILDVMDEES
Method: BTK binding affinity of each compound tested was determined using a time-resolved fluorescence resonance energy transfer (TR-FRET) methodology. 2.5 nM Recombinant BTK kinase, varying concentrations of inhibitor, 2 nM LanthaScreen™ Eu anti-His Antibody and 15 nM Kinase Tracer 236 was incubated in 1× LanthaScreen™ Kinase Buffer A for five hours. Recombinant BTK kinase and all LanthaScreen™ components were purchased from Invitrogen. Measurements were performed in a reaction volume of 30 μL using half-area 96-well assay plates. The TR-FRET signal was read on a plate reader with an excitation wavelength of 340 nm and detection wavelengths of 615 and 665 nm. Binding affinity was determined for each compound by measuring TR-FRET signal at various concentrations of compound and plotting the relative fluorescence units against the inhibitor concentration to estimate the IC50 from log [Inhibitor] vs response using the Variable Slope model in Graphpad prism from Graphpad software (SanDiego, Calif.).

Recombinant EGFR = molecular target: T2, Recombinant EGFR (Homo sapiens, UniProt P00533); test: EGFR binding affinity (TR-FRET); settings: 2.5 nM recombinant EGFR, five hours incubation, Table 3 categories
T2 construct: purchased Invitrogen
T2 sequence (P00533 25-1210): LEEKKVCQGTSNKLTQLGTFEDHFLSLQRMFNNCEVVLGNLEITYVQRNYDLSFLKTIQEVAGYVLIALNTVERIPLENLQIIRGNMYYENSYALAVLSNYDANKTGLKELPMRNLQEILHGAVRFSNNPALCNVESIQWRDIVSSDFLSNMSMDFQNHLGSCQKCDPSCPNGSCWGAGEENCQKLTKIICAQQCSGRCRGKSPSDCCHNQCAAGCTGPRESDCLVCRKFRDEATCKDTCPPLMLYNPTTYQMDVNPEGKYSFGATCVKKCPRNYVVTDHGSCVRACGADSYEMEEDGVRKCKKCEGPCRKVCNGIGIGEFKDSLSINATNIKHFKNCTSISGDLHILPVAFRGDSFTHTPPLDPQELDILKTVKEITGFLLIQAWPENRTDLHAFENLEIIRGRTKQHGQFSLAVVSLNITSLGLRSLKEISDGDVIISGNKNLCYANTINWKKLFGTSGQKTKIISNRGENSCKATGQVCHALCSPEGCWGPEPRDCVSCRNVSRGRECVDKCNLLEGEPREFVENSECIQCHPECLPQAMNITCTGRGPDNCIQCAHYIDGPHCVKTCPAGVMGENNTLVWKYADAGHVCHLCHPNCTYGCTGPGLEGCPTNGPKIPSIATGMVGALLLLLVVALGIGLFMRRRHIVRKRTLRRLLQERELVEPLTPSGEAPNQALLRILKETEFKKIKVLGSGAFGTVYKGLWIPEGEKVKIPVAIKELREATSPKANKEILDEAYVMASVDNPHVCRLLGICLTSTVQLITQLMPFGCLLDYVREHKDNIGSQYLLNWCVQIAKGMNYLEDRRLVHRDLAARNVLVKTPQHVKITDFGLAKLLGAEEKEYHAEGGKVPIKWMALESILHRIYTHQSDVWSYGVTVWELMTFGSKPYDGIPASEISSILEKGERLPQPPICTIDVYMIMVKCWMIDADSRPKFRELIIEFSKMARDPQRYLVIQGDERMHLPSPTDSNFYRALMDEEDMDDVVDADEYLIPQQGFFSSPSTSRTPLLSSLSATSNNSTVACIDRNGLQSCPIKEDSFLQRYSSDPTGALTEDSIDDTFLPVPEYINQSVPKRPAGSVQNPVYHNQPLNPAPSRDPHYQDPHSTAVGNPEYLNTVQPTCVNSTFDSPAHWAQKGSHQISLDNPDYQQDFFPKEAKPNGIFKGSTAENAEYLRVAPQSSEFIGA
Method: EGFR binding affinity was determined using a time-resolved fluorescence resonance energy transfer (TR-FRET) methodology. 2.5 nM Recombinant EGFR, varying concentrations of inhibitor, 2 nM LanthaScreen™ Eu anti-GST Antibody and 3 nM Kinase Tracer 199 was incubated in 1× LanthaScreen™ Kinase Buffer A for five hours. Recombinant EGFR and all LanthaScreen™ components were purchased from Invitrogen. Measurements were performed in a reaction volume of 30 μL using half-area 96-well assay plates. The TR-FRET signal was read on a plate reader with an excitation wavelength of 340 nm and detection wavelengths of 615 and 665 nm. Binding affinity was determined for each compound by measuring TR-FRET signal at various concentrations of compound and plotting the relative fluorescence units against the inhibitor concentration to estimate the IC50 from log [Inhibitor] vs response using the Variable Slope model in Graphpad prism from Graphpad software (SanDiego, Calif.).

[2] = 2.5 nM recombinant BTK, five hours incubation, Table 3 categories

SMILES | bioavailability [1] | estimated fraction absorbed [1] | IC50 (TMD8 human DLBCL cells) [nM] | IC50 (Recombinant BTK kinase; [2]) [nM] | IC50 (Recombinant BTK kinase; Table 4 numeric values) [nM] | IC50 (Recombinant EGFR) [nM]
C=CC(=O)N1CCC[C@@H](n2nc(-c3ccc(Oc4ccccc4)cc3)c3c(N)ncnc32)C1 [Ibrutinib] | poor | low |  |  |  | 
C=CC(=O)N1CCC[C@@H](n2nc(-c3ccc(CNC(=O)c4ccc(C)cc4OC)cc3)c3c(N)ncnc32)C1 [ID No. 15, N-[[4-[4-amino-1-[(3R)-1-prop-2-enoyl-3-piperidyl]pyrazolo[3,4-d]pyrimidin-3-yl]phenyl]methyl]-2-methoxy-4-methyl-benzamide] |  |  | < 5 | 0.5 to 1 | 0.7 | 25 to 80
C=CC(=O)N1CCC[C@@H](n2nc(-c3ccc(CNC(=O)c4ccc(C(F)(F)F)cc4F)cc3)c3c(N)ncnc32)C1 [ID No. 36, N-[[4-[4-amino-1-[(3R)-1-prop-2-enoyl-3-piperidyl]pyrazolo[3,4-d]pyrimidin-3-yl]phenyl]methyl]-2-fluoro-4-(trifluoromethyl)benzamide] |  |  | 25 to 300 | 1 to 10 |  | < 25
